“Also recorded” adds a separate entry of the source.
Legend:
[1] = Dose escalation and 14-day MTD study in female FVB mice; format: in vivo; details: female, FVB, mouse, in vivo; daily oral dose for 14 days
Description: In Vivo Range Finding Toxicity Studies in Mice and Rats: Dose escalation and 14-day MTD study of SRI-011381 and SRI-011382 in female FVB mice: The objectives of this study were to determine the maximum tolerated dose (MTD) and a no observable adverse effect level (NOAEL) in female FVB mice following a daily oral dose administration for 14 consecutive days. An initial dose escalation was performed with intraperitoneal (ip), oral (po), and intravenous (iv) dose routes for a single-dose MTD of SRI-011381 and SRI-011382.
Subsequently, three dose levels (10, 30, and 75 mg/kg) and a vehicle control group were used in the 14-day oral dose administration to determine the MTD and NOAEL based on changes in bodyweight, clinical observations, serum chemistry, hematology and gross organ physiology in 5 female mice per treatment group.
The objectives of this study were to determine maximum tolerated dose (MTD) and a no observable adverse effect level (NOAEL) in female FVB mice following a daily oral dose administration for 14 consecutive days. After a dose escalation single dose study with doses up to 400 mg/kg, three dose levels were selected for the repeat dose study, 10, 30 and 75 mg/kg, administered […]. The MTD is the maximum dose administered that results in less than 10% body weight loss compared to controls and no other dose limiting adverse effects (e.g. clinical pathology).

[2] = test system: human macrophages differentiated from THP-1 monocytic cell lines; test: Fibrillar Aβ clearance by THP-1 macrophages; format: cell-based; details: 24 h, 2, 5, or 10 μM
Description: SRI-011381 promotes Aβ clearance in cell culture: TGF-β1 promotes Aβ clearance in a microglia cell line. To test whether SRI-011381 has similar properties, mouse J774A.1 macrophages and human macrophages differentiated from THP-1 monocytic cell lines were treated with fibrillar Aβ in the absence or presence of compound (2, 5, or 10 μM) for 24 h. Conditioned medium was harvested and the remaining Aβ that was not phagocytosed by macrophages was quantified by Aβ ELISA.
FIGS. 4A and 4B present data from experiments in which human macrophages differentiated from THP-1 monocytic cell lines and mouse J774A.1 macrophages were incubated with fibrillar Aβ in the absence or presence of compound (2 or 5 μM) for 24 h. Conditioned medium was harvested and the remaining Aβ was quantified by Aβ ELISA. The collected medium (FIGS. 4C-4D) was added to N2A-APP-Swe cells (mouse Neuro-2A neuroblastoma cells stably expressing Swedish APP695) and incubated for 24 h. Neurotoxicity was quantified by an MTS Assay.
Mouse J774A.1 macrophages and human macrophages that were differentiated from THP-1 monocytic cell lines were treated with fibrillar Aβ42 in the absence or presence of SRI-011382 or its derivative compounds (2, 5, or 10 μM) for 24 h. Conditioned medium was harvested and the remaining Aβ42 that was not phagocytosed by macrophages was quantified by Aβ42 ELISA kit (Invitrogen). […]

O=C(NC1CCCCC1)N(Cc1ccccc1)CC1CCNCC1 [SRI-011381, 1-Benzyl-3-cyclohexyl-1-(piperidin-4-ylmethyl)urea]
NOAEL at 14 days [1]: < 30 mg/kg | fibrillar Aβ clearance [2]: promoted fibrillar Aβ clearance; also recorded: promoted fibrillar Aβ42 clearance | fibrillar Aβ clearance ([2]; listed as SRI-11381): promote fibrillar Aβ42 clearance
